Data taken from ChEMBL document CHEMBL4680217, “Discovery of PROTAC BCL-X degraders as potent anticancer agents with low on-target platelet toxicity” (Eur J Med Chem, 2020).
Each block holds one molecule with its values, some of them ahead of it. Activity calls are given as the source filed them. The rule behind the calls is not given here.

Legend:
[1] = biological target: T1, Protein cereblon/Bcl-2-like protein 1 (Homo sapiens, UniProt Q07817+Q96SW2); assay: Protac activity at CRBN/BCL-XL in human MOLT-4 cells assessed as induction of BCL-XL degradation at 33 to 1000 nM measured after 16 hrs by immunoblotting analysis; assay type: cell-based; conditions: dose 33-1000 nM
Target sequence in this assay (Q07817 whole entry, looked up): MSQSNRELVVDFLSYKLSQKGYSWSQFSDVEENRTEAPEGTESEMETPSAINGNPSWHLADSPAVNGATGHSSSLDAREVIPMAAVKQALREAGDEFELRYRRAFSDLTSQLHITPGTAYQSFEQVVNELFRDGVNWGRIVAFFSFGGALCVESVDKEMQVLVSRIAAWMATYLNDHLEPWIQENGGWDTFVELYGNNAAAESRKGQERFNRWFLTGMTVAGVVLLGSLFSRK
Target sequence in this assay (Q96SW2 whole entry, looked up): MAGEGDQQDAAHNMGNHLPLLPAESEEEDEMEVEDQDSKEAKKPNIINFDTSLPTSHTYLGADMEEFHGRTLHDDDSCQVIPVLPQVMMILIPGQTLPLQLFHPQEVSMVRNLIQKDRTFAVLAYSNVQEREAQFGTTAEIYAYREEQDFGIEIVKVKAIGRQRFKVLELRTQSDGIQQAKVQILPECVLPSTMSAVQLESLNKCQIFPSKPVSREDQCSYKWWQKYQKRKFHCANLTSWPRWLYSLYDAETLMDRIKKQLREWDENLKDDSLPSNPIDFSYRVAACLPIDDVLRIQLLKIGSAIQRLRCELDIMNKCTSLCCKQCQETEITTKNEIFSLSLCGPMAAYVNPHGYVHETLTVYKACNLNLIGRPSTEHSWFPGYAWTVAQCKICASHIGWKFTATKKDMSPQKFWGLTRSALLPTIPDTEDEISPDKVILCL

[2] = test system: MOLT-4; assay: Induction of apoptosis in human MOLT-4 cells assessed as necrotic cells at 100 nM measured after 48 hrs in presence of pan-caspase inhibitor QVD by Alexa Fluor 647-Annexin V/propidium iodide staining based flow cytometry (reference value: 0.3 to 0.4%); assay type: functional
[3] = test system: MOLT-4; assay: Induction of apoptosis in human MOLT-4 cells assessed as viable cells at 100 nM measured after 48 hrs by Alexa Fluor 647-Annexin V/propidium iodide staining based flow cytometry (reference value: 97.1 to 97.3%); assay type: functional; conditions: read-out: Activity
[4] = test system: MOLT-4; assay: Induction of apoptosis in human MOLT-4 cells assessed as early apoptotic cells at 100 nM measured after 48 hrs by Alexa Fluor 647-Annexin V/propidium iodide staining based flow cytometry (reference value: 1.5 to 1.7%); assay type: functional
[5] = test system: MOLT-4; assay: Induction of apoptosis in human MOLT-4 cells assessed as viable cells at 100 nM measured after 48 hrs in presence of pan-caspase inhibitor QVD by Alexa Fluor 647-Annexin V/propidium iodide staining based flow cytometry (reference value: 97.1 to 97.3%); assay type: functional; conditions: read-out: Activity
[6] = test system: MOLT-4; assay: Induction of apoptosis in human MOLT-4 cells assessed as necrotic cells at 100 nM measured after 48 hrs by Alexa Fluor 647-Annexin V/propidium iodide staining based flow cytometry (reference value: 0.3 to 0.4%); assay type: functional
[7] = Selectivity index, ratio of IC50 for human platelet to IC50 for human MOLT-4 cells
[8] = test system: NCI-H146; assay: Antiproliferative activity against human NCI-H146 cells assessed as reduction in cell viability measured after 48 hrs by MTS assay; assay type: functional, cell-based; conditions: NCI-H146, 48 h
[9] = test system: MOLT-4; assay: Induction of apoptosis in human MOLT-4 cells assessed as early apoptotic cells at 10 nM measured after 48 hrs by Alexa Fluor 647-Annexin V/propidium iodide staining based flow cytometry (reference value: 1.5 to 1.7%); assay type: functional
[10] = test system: MOLT-4; assay: Induction of apoptosis in human MOLT-4 cells assessed as late apoptotic cells at 10 nM measured after 48 hrs by Alexa Fluor 647-Annexin V/propidium iodide staining based flow cytometry (reference value: 1.1 to 1.4%); assay type: functional
[11] = test system: MOLT-4; assay: Induction of apoptosis in human MOLT-4 cells assessed as early apoptotic cells at 100 nM measured after 48 hrs in presence of pan-caspase inhibitor QVD by Alexa Fluor 647-Annexin V/propidium iodide staining based flow cytometry (reference value: 1.5 to 1.7%); assay type: functional
[12] = test system: RS4-11; assay: Antiproliferative activity against human RS4-11 cells assessed as reduction in cell viability measured after 48 hrs by MTS assay; assay type: functional, cell-based; conditions: RS4-11, 48 h
[13] = test system: MOLT-4; assay: Antiproliferative activity against human MOLT-4 cells assessed as reduction in cell viability measured after 48 hrs by MTS assay; assay type: functional, cell-based; conditions: MOLT-4, 48 h
[14] = test system: MOLT-4; assay: Induction of apoptosis in human MOLT-4 cells assessed as necrotic cells at 10 nM measured after 48 hrs by Alexa Fluor 647-Annexin V/propidium iodide staining based flow cytometry (reference value: 0.3 to 0.4%); assay type: functional
[15] = test system: MOLT-4; assay: Induction of apoptosis in human MOLT-4 cells assessed as late apoptotic cells at 100 nM measured after 48 hrs by Alexa Fluor 647-Annexin V/propidium iodide staining based flow cytometry (reference value: 1.1 to 1.4%); assay type: functional
[16] = Toxicity in human platelet assessed as reduction in cell viability measured after 48 hrs by MTS assay; assay type: tissue-based; conditions: human platelets
[17] = test system: MOLT-4; assay: Induction of apoptosis in human MOLT-4 cells assessed as viable cells at 10 nM measured after 48 hrs by Alexa Fluor 647-Annexin V/propidium iodide staining based flow cytometry (reference value: 97.1 to 97.3%); assay type: functional; conditions: read-out: Activity
[18] = test system: MOLT-4; assay: Induction of apoptosis in human MOLT-4 cells assessed as late apoptotic cells at 100 nM measured after 48 hrs in presence of pan-caspase inhibitor QVD by Alexa Fluor 647-Annexin V/propidium iodide staining based flow cytometry (reference value: 1.1 to 1.4%); assay type: functional
[19] = biological target: T2, von Hippel-Lindau disease tumor suppressor/Bcl-2-like protein 1 (Homo sapiens, UniProt Q07817+P40337); assay: Protac activity at VHL/BCL-XL in human MOLT-4 cells assessed as induction of BCL-XL degradation measured after 16 hrs by immunoblotting analysis; assay type: cell-based
Target sequence in this assay (Q07817 whole entry): as the sequence (Q07817 whole entry, looked up) above
Target sequence in this assay (P40337 whole entry): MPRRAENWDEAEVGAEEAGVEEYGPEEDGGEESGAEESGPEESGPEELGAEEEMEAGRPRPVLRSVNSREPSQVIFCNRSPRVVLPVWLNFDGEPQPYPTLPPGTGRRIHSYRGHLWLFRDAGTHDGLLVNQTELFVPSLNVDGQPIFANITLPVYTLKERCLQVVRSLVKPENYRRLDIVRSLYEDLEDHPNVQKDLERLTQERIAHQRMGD

[20] = biological target: von Hippel-Lindau disease tumor suppressor/Apoptosis regulator Bcl-2 (Homo sapiens) (UniProt P10415+P40337); assay: Protac activity at VHL/BCL2 in human MOLT-4 cells assessed as induction of BCL2 degradation at 100 nM measured after 16 hrs by immunoblotting analysis; assay type: cell-based
Sequence of von Hippel-Lindau disease tumor suppressor/Apoptosis regulator Bcl-2 (Homo sapiens) (P10415 whole entry, looked up): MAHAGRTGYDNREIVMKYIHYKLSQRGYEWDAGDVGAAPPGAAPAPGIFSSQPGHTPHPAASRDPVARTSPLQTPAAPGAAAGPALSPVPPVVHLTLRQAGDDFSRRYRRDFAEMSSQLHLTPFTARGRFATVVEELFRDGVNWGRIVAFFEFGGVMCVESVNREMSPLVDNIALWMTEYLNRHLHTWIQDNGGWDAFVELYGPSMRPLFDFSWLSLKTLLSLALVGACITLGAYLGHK
Sequence of von Hippel-Lindau disease tumor suppressor/Apoptosis regulator Bcl-2 (Homo sapiens) (P40337 whole entry, looked up): as the sequence (P40337 whole entry) above

[21] = biological target: T2, von Hippel-Lindau disease tumor suppressor/Bcl-2-like protein 1; assay: Protac activity at VHL/BCL-XL in human MOLT-4 cells assessed as induction of BCL-XL degradation by measuring remaining BCL-XL level at 100 nM measured after 16 hrs by immunoblotting analysis relative to control; assay type: cell-based
Target sequence in this assay (P40337 whole entry, looked up): as the sequence (P40337 whole entry) above
Target sequence in this assay (Q07817 whole entry, looked up): as the sequence (Q07817 whole entry, looked up) above

[22] = biological target: Protein cereblon/Apoptosis regulator Bcl-2 (Homo sapiens) (UniProt P10415+Q96SW2); assay: Protac activity at CRBN/BCL2 in human MOLT-4 cells assessed as induction of BCL2 degradation at 50 nM measured after 16 hrs by immunoblotting analysis; assay type: cell-based
Sequence of Protein cereblon/Apoptosis regulator Bcl-2 (Homo sapiens) (P10415 whole entry, looked up): as the sequence (P10415 whole entry, looked up) above
Sequence of Protein cereblon/Apoptosis regulator Bcl-2 (Homo sapiens) (Q96SW2 whole entry, looked up): as the sequence (Q96SW2 whole entry, looked up) above

[23] = biological target: T1, Protein cereblon/Bcl-2-like protein 1; assay: Protac activity at CRBN/BCL-XL in human MOLT-4 cells assessed as induction of BCL-XL degradation measured after 16 hrs by immunoblotting analysis; assay type: cell-based
Target sequence in this assay (Q07817 whole entry): as the sequence (Q07817 whole entry, looked up) above
Target sequence in this assay (Q96SW2 whole entry): as the sequence (Q96SW2 whole entry, looked up) above

[24] = biological target: T1, Protein cereblon/Bcl-2-like protein 1; assay: Protac activity at CRBN/BCL-XL in human MOLT-4 cells assessed as induction of BCL-XL degradation by measuring remaining BCL-XL level at 50 nM measured after 16 hrs by immunoblotting analysis relative to control; assay type: cell-based
Target sequence in this assay (Q07817 whole entry, looked up): as the sequence (Q07817 whole entry, looked up) above
Target sequence in this assay (Q96SW2 whole entry, looked up): as the sequence (Q96SW2 whole entry, looked up) above

Activity [1]: inactive
Structure (SMILES): CN(CCOCCOCCOCCNc1cccc2c1C(=O)N([C@@H]1CCC(=O)N(C)C1=O)C2=O)CC[C@H](CSc1ccccc1)Nc1ccc(S(=O)(=O)NC(=O)c2ccc(N3CCN(CC4=C(c5ccc(Cl)cc5)CCC(C)(C)C4)CC3)cc2)cc1S(=O)(=O)C(F)(F)F

IC50 [8]: 43.8 nM | IC50 [12]: 49 nM | IC50 [13]: 227 nM
Structure (SMILES): CN(C)CC[C@H](CSc1ccccc1)Nc1ccc(S(=O)(=O)NC(=O)c2ccc(N3CCN(Cc4ccccc4-c4ccc(Cl)cc4)CC3)cc2)cc1[N+](=O)[O-] [ABT 737]
Activity [2]: 5.4% | viability at 0.1 µM [3]: 40.7% | Activity [4]: 47.4% | viability at 0.1 µM [5]: 83.1% | Activity [6]: 0.4% | Ratio IC50 [7]: 1.1 | Activity [9]: 2.5% | Activity [10]: 1.4% | Activity [11]: 2.6% | Activity [14]: 0.1% | Activity [15]: 11.6% | IC50 at 48 h [16]: 0.242 µM | viability at 0.01 µM [17]: 96% | Activity [18]: 8.6%

DC50 [19]: 93 nM | IC50 [8]: 203 nM | Activity [20]: inactive | IC50 [12]: 76 nM | IC50 [13]: 82 nM | Activity [21]: 43%
Structure (SMILES): Cc1ncsc1-c1ccc([C@H](C)NC(=O)[C@@H]2C[C@@H](O)CN2C(=O)[C@@H](NC(=O)CCCCCN2CCN(CC[C@H](CSc3ccccc3)Nc3ccc(S(=O)(=O)NC(=O)c4ccc(N5CCN(CC6=C(c7ccc(Cl)cc7)CCC(C)(C)C6)CC5)cc4)cc3S(=O)(=O)C(F)(F)F)CC2)C(C)(C)C)cc1
Ratio IC50 [7]: >122 | IC50 at 48 h [16]: > 10 µM

Activity [22]: inactive | IC50 [8]: 70.2 nM | IC50 [12]: 129 nM | IC50 [13]: 32.5 nM | DC50 [23]: 10.6 nM | Activity [24]: 31%
Structure (SMILES): CN(CCCNc1cccc2c1C(=O)N([C@@H]1CCC(=O)NC1=O)C2=O)CC[C@H](CSc1ccccc1)Nc1ccc(S(=O)(=O)NC(=O)c2ccc(N3CCN(CC4=C(c5ccc(Cl)cc5)CCC(C)(C)C4)CC3)cc2)cc1S(=O)(=O)C(F)(F)F
Ratio IC50 [7]: 101 | IC50 at 48 h [16]: 3.3 µM
